This is an account of results in US9127027B2, “Epoxyeicosatrienoic acid analogs and methods of making and using the same” (The Medical College of Wisconsin, Inc., priority 2011, dated 2015).

By IC50 is commonly meant the concentration that gives 50% inhibition. What is called EC50 is the midpoint of the concentration-response curve.

SMILES strings stand for the structures. Read-outs that look alike come from different tables or passages of the source. Some results are limits rather than exact numbers.

One assay deals with Human recombinant sEH (Homo sapiens (Human), UniProt P34913). The assay can be described thus: Soluble epoxide hydrolase inhibition (PHOME fluorescent substrate). In kind it is biochemical. To be noted: Table 1 head prints μM (Table 2 prints nM for same numbers); read-out: sEHi IC50. As to the method: Compounds were tested for their ability to inhibit recombinant soluble epoxide hydrolase (sEH) protein. The assay utilizes (3-Phhenyl-oxiranyl)-acetic acid cyano-(6-methoxy-naphthalen-2-yl)-methyl ester (PHOME), a sensitive substrate for sEH that can be used to monitor the activity of both human and murine enzymes. […] Human recombinant sEH was incubated with substrate and compounds ranging in concentration from 0.1 to 1000 nM.
Sequence of Human recombinant sEH (P34913 whole entry): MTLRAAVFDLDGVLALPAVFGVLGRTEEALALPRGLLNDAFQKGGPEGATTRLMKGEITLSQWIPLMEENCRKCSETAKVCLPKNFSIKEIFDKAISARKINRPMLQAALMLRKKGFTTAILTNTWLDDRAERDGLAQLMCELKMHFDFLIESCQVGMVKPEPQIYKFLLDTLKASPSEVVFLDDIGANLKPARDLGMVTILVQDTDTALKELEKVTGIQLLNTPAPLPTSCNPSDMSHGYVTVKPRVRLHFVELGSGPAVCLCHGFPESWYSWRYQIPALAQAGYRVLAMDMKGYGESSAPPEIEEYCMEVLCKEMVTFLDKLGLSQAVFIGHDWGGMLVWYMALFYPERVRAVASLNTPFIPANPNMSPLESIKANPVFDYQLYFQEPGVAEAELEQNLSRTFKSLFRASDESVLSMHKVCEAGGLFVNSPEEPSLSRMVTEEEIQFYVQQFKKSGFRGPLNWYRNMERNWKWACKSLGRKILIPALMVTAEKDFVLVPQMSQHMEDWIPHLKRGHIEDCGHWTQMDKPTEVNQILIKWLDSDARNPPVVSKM

In another assay the test system is bovine coronary artery. Description: Vasorelaxant activity in bovine coronary artery rings precontracted with U-46619. In kind it is cell-based. As to conditions: for Vascular Relax. % (10 μM) / activation at 10 µM: 100% relaxation = basal pre-U-46619 tension; for EC50: bovine coronary artery, read-out: Vascular Relax. EC50; for activation at 10 µM: read-out: Vascular Relax. % (10 μM). As to the method: Vasorelaxant activity was measured in bovine coronary artery. Bovine hearts were obtained and the left anterior descending coronary artery was dissected and cleaned of connective tissue. Vessels of 1 mm diameter were cut into rings of 3 mm width as previously described (3, 27, 39). […] The vessels were suspended from a pair of stainless steel hooks in a 6-ml water-jacketed organ chamber. […] One hook was anchored to a steel rod and the other hook to a force transducer (model FT-03C; Grass Instruments, West Warwick, R.I.). Tension of the vessel was measured by an ETH-400 bridge amplifier, and the data were acquired with a MacLab 8e analog-to-digital converter and MacLab software version 3.5.6 (AD Instruments, Milford, Mass.) and stored on a Macintosh computer for subsequent data analysis.
Basal tension was set at the length-tension maximum of 3.5 g and equilibrated for 1.5 h. KCl (40 mM) was added to the chamber until reproducible maximal contractions were maintained. […] Cumulative additions of compounds were added to the chamber. Between concentration-response curves, the chambers were rinsed with fresh Krebs buffer, 40 mM KCl was administered to determine the maximum contraction, and the vessels were rinsed. Consecutive concentration-response curves were performed with 14,15-EET followed by a concentration-response curve to a compound. The experiment was always repeated with the order of the agonists reversed. […] The relaxation was plotted versus compound concentration and the EC50 determined utilizing statistical software.

Take `CCCCCCC(=O)N(CCCC/C=C\CCCCCCC(=O)OCCOCCOCCO)C(C)C` [Compound 1, 2-(2-(2-Hydroxyethoxy)ethoxy)ethyl 13-(N-isopropylheptanamido)tridec-8(Z)-enoate]: the 50% inhibitory concentration (IC50) at Human recombinant sEH was over 0.5 µM. In the assay on bovine coronary artery, the “Vascular Relax. % (10 μM)” value worked out at 86% and the EC50 was 2900 nM.
With `CCCCCNC(=O)NCCCC/C=C\CCCCCCC(=O)OCCOCCOCCO` [Compound 2, 2-(2-(2-Hydroxyethoxy)ethoxy)ethyl 13-(3-n-pentylureido)tridec-8(Z)-enoate], in the assay on bovine coronary artery, the “Vascular Relax. % (10 μM)” value was 72% and the EC50 is 5100 nM.
Take `CCCCNC(=O)C(=O)NCCCC/C=C\CCCCCCC(=O)OCCOCCOCCO` [Compound 3, 2-(2-(2-Hydroxyethoxy)ethoxy)ethyl13-(2-(n-butylamino)-2 oxoacetamido)tridec-8(Z)-enoate]: on Human recombinant sEH, the half-inhibitory concentration (IC50) is over 0.5 µM. In addition, in the assay with bovine coronary artery, the “Vascular Relax. % (10 μM)” value is recorded as 104% and the half-maximal effective concentration (EC50) was 1500 nM.
`CCCCCNC(=O)NCCCC/C=C\CCCCOCC(=O)O` [Compound 4, 2-(10-(3-n-Pentylureido)dec-5(Z)-enyloxy)acetic acid]: the IC50 on Human recombinant sEH is 0.237 µM. Besides, the “Vascular Relax. % (10 μM)” value with bovine coronary artery turned out to be 49%. Also, the half-maximal effective concentration (EC50) in the assay on bovine coronary artery (Bos taurus) was 630 nM.
With `CCCCCCC(=O)N(CCCC/C=C\CCCCCCC(=O)NCC(=O)O)C(C)C` [Compound 5, 2-(13-(N-Isopropylheptanamido)tridec-8(Z)-enamido)acetic acid], the “Vascular Relax. % (10 μM)” value in the assay with bovine coronary artery is recorded as 95%. Also, the EC50 with bovine coronary artery (Bos taurus) is 1900 nM.
`CCCCCN(C)C(=O)N(C)CCCC/C=C\CCCCCCC(=O)NCC(=O)O` [Compound 6, 2-(13-(1,3-Dimethyl-3-n-pentylureido)tridec-8(Z)-enamido)acetic acid]: the IC50 at Human recombinant sEH is over 0.5 µM. Further, the “Vascular Relax. % (10 μM)” value in the assay on bovine coronary artery came to 92%. In addition, the half-maximal effective concentration (EC50) in the assay on bovine coronary artery (Bos taurus) worked out at 2750 nM.
In the same order, the values of `CCCCCNC(=O)NCCCC/C=C\CCCCCCC(=O)NS(=O)(=O)c1ccccc1` [Compound 8, 13-(3-n-Pentylureido)-N-(phenylsulfonyl)tridec-8(Z)-enamide] are 0.041 µM, 73% and 6000 nM.
For `CCCCCNC(=O)NCCCC/C=C\CCCCCCC(=O)NS(C)(=O)=O` [Compound 9, N-(Methylsulfonyl)-13-(3-n-pentylureido)tridec-8(Z)-enamide] the same measures were 0.071 µM, 61% and 6700 nM.
In the same order, the values of `CCCCCNC(=O)NCCCC/C=C\CCCCCCP(=O)([O-])[O-].[Na+].[Na+]` [Compound 10] are over 0.5 µM, 71% and over 10000 nM.
Regarding `CCCCCNC(=O)NCCCC/C=C\CCCCCCS(=O)(=O)[O-].[Na+]` [Compound 11], the IC50 at Human recombinant sEH stood at 0.057 µM. Further, the “Vascular Relax. % (10 μM)” value with bovine coronary artery is 63%. Besides, the EC50 in the assay on bovine coronary artery (Bos taurus) came to 7600 nM.
On to `CCCCCNC(=O)NCCCC/C=C\CCCCCNS(=O)(=O)c1ccccc1` [Compound 12, N-(11-(3-n-Pentylureido)undec-6(Z)-enyl)benzenesulfonamide], for which the IC50 at Human recombinant sEH came to 0.032 µM. Moreover, in the assay with bovine coronary artery (Bos taurus), the activation at 10 µM stood at 75% and the EC50 was found to be 3400 nM.
For `CCCCCNC(=O)NCCCC/C=C\CCCCCSc1ccccc1O` [Compound 13, 1-(11-(2-Hydroxyphenylthio)undec-5(Z)-enyl)-3-n-pentylurea] the same measures were 0.006 µM, 48% and over 10000 nM.
Consider `CCCCCNC(=O)NCCCC/C=C\CCCCCS(=O)(=O)c1ccccc1O` [Compound 14, 1-(11-(2-Hydroxyphenylsulfonyl)undec-5(Z)-enyl)-3-n-pentylurea], for which, in the assay with bovine coronary artery (Bos taurus), the activation at 10 µM stood at 76% and the EC50 turned out to be 5000 nM.
Take `CCCCCNC(=O)NCCCC/C=C\CCCCCSc1nnn[nH]1` [Compound 15, 1-(11-(1H-Tetrazol-5-ylthio)undec-5(Z)-enyl)-3-pentylurea]: the IC50 at Human recombinant sEH was 0.022 µM. In addition, in the assay on bovine coronary artery (Bos taurus), the activation at 10 µM came out at 85% and the EC50 was 3700 nM.
In the same order, the values of `CCCCCNC(=O)NCCCC/C=C\CCCCCSc1ncn[nH]1` [Compound 16] are 0.032 µM, 53% and 9800 nM.
For `CCCCCNC(=O)NCCCC/C=C\CCCCC[S+]([O-])c1ncn[nH]1` (stereo not shown) [Compound 17] the same measures were 0.096 µM, 92% and 3500 nM.
In the same order, the values of `CCCCCNC(=O)NCCCC/C=C\CCCCCS(=O)(=O)c1ncn[nH]1` [Compound 18] are 0.023 µM, 92% and 3100 nM.
As to `CCCCCCC(=O)N(CCCC/C=C\CCCCCCc1nnn[nH]1)C(C)C` [Compound 19], the “Vascular Relax. % (10 μM)” value in the assay on bovine coronary artery is reported as 74%. Moreover, the 50% effective concentration (EC50) with bovine coronary artery (Bos taurus) was 1000 nM.
As for `CCCCNC(=O)C(=O)NCCCC/C=C\CCCCCCc1nnn[nH]1` [Compound 21], the IC50 on Human recombinant sEH was over 0.5 µM. The “Vascular Relax. % (10 μM)” value with bovine coronary artery is on record as 96%. For the same compound, the EC50 in the assay on bovine coronary artery (Bos taurus) was 1700 nM.
As for `CCCCCNC(=O)NCCCC/C=C\CCCCCCCc1nnn[nH]1` [Compound 22, 1-(13-(1H-Tetrazol-5-yl)tridec-5(Z)-enyl)-3-n-pentylurea], the IC50 on Human recombinant sEH turned out to be 0.032 µM. The “Vascular Relax. % (10 μM)” value with bovine coronary artery worked out at 110%. Besides, the EC50 in the assay with bovine coronary artery (Bos taurus) is 1100 nM.
For `CCCCCNC(=O)NCCCC/C=C\CCCCCCc1noc(=O)[nH]1` [Compound 23] the same measures were 0.065 µM, 89% and 1100 nM.
With `CCCCCNC(=O)NCCCC/C=C\CCCCCC1SC(=O)NC1=O` (stereo not shown) [Compound 24, 1-(11-(2,4-Dioxothiazolidin-5-yl)undec-5(Z)-enyl)-3-n-pentylurea], the IC50 at Human recombinant sEH came out at 0.057 µM. Moreover, in the assay on bovine coronary artery (Bos taurus), the activation at 10 µM was 47% and the half-maximal effective concentration (EC50) is over 10000 nM.
Take `CCCCCNC(=O)NCCCC/C=C\CCCCCCC1=NOS(=O)N1` (stereo not shown) [Compound 25]: the IC50 at Human recombinant sEH was 0.01 µM. The “Vascular Relax. % (10 μM)” value with bovine coronary artery was determined as 109%. The 50% effective concentration (EC50) in the assay with bovine coronary artery (Bos taurus) was determined as 340 nM.
Regarding `CCCCNC(=O)C(=O)NCCCC/C=C\CCCCCCC1=NOS(=O)N1` (stereo not shown) [Compound 27], the IC50 at Human recombinant sEH was over 0.5 µM. Further, in the assay on bovine coronary artery (Bos taurus), the activation at 10 µM stood at 116% and the EC50 came to 360 nM.
As for `CCCCCNC(=O)NCCCC/C=C\CCCCCCc1noc(=S)[nH]1` [Compound 28], at Human recombinant sEH, the half-inhibitory concentration (IC50) is 0.031 µM. For the same compound, in the assay on bovine coronary artery, the “Vascular Relax. % (10 μM)” value came out at 93%. Also, the EC50 in the assay with bovine coronary artery (Bos taurus) came out at 3300 nM.
For the compound `CCCCCNC(=O)NCCCC/C=C\CCCCCCc1nsc(=O)[nH]1` [Compound 29], the 50% inhibitory concentration (IC50) at Human recombinant sEH worked out at 0.231 µM. The “Vascular Relax. % (10 μM)” value with bovine coronary artery turned out to be 54%. The EC50 in the assay with bovine coronary artery (Bos taurus) amounted to 2400 nM.
For `CCCCCNC(=O)NCCCCCOc1cccc2sc(NC(C)=O)nc12` [Compound 31, N-(4-(5-(3-n-Pentylureido)pentyloxy)benzo[d]thiazol-2-yl)acetamide] the same measures were over 0.5 µM, 73% and 900 nM.
On to `CCCCNC(=O)C(=O)NCCCCCOc1cccc2sc(NC(C)=O)nc12` [Compound 32], for which the “Vascular Relax. % (10 μM)” value in the assay on bovine coronary artery is 96%. The EC50 in the assay on bovine coronary artery (Bos taurus) is 2400 nM.
